{
  "source": "paper PMC10686834",
  "about": "“Targeting myeloid chemotaxis to reverse prostate cancer therapy resistance” (Nature, 2023)",
  "key": {"blood neutrophils": {"test_system": "blood neutrophils", "experiment": "Peripheral blood neutrophil counts and NLR on treatment", "type": "in vivo, human", "experimental": "Secondary endpoints were:(i) the rate of objective response, with objective response defined as confirmed soft tissue objective response by Response Evaluation Criteria in Solid Tumors v.1.1 in those with measurable disease, and/or PSA decline ≥50% confirmed 4 weeks or later, and/or CTC count conversion from ≥5 per 7.5 ml of blood at baseline to <5 per 7.5 ml of blood at nadir; (ii) pharmacokinetic parameters, including maximum concentration, area under the concentration–time curve; and (iii) pharmacodynamic changes including identifying patients whose blood NLR, neutrophil, and intratumour myeloid cell density decrease. Exploratory endpoints included blood cytokine levels and evaluation of tumour molecular profile on response.\nThe association between myeloid cell densities and NLR was evaluated in two cohorts (Supplementary Table 1). Cohort 1 consisted of 48 mCRPC biopsies from patients treated at ICR/RMH, Oncology Institute of Southern Switzerland and Belfast City Hospital between 2012 and 2021. All patients provided informed consent, and enrolled onto institutional protocols approved by the local RECs (REC reference: 04/Q0801/60, 11/LO/2019). The validation cohort consisted of 57 mCRPC biopsies from patients treated at ICR/RMH between 2012 and 2016 under institutional protocols approved by the local REC (REC references: 04/Q0801/60, 2017-01002 CE TI 3237). […]"}, "[1]": {"test_system": "CD11b+HLA-DRloCD15+CD14− myeloid cells", "experiment": "Hyperplex IF of paired pre- and on-treatment mCRPC biopsies: intratumour immune cell density", "type": "in vivo, human", "experimental": "Specific pharmacokinetic collection time points are listed in the study protocol. Pharmacokinetic parameters were calculated using non-compartmental analysis (Phoenix v.8.1, Certara). Fresh tumour needle core biopsies from matched disease sites (lymph node, bone and soft tissue) were collected at baseline (within 1 week of treatment commencement) and approximately 2 weeks after starting AZD5069 in patients when this was deemed safe and feasible. Tumour biopsies were obtained from 18 patients under computerized tomography or ultrasound guidance by an experienced interventional radiologist (N.T.). […] One patient had only a baseline tumour biopsy. Two patients underwent on-treatment biopsies after 4 weeks. Immediately after biopsy, tumour samples were immersed in 10% neutral-buffered formalin for 24 hours. Samples were processed through paraffin wax for histologic examination. […] Baseline FFPE samples were analysed by IHC, and pre- and post-treatment FFPE biopsies were analysed by IF and targeted RNA profiling using HTG EdgeSeq. […]\nThe hyperplex IF protocol template was generated using the COMET Control Software (v.0.70.0.1, Lunaphore Technologies), and reagents were loaded onto the device to carry out the sequential IF (seqIF) protocol. […] Nuclear signal was detected with DAPI (No. 62248, dilution 1:1,000, Thermo Fisher Scientific) by dynamic incubation of 2 min. […]"}, "CYP2A6": {"test_system": "CYP2A6", "set-up": "method as in AZD5069 Investigator Brochure (IB)", "settings": "at concentrations of up to 100 μmol/L; ref AZD5069 Investigator Brochure (IB); cited from earlier work"}, "CYP2B6 [2]": {"test_system": "CYP2B6", "set-up": "method as in AZD5069 Investigator Brochure (IB)", "settings": "at concentrations of up to 100 μmol/L; ref AZD5069 Investigator Brochure (IB); cited from earlier work"}, "CYP2B6 [3]": {"test_system": "CYP2B6", "set-up": "method as in AZD5069 Investigator Brochure (IB)", "settings": "human hepatocytes; ref AZD5069 Investigator Brochure (IB); cited from earlier work"}, "[4]": {"test_system": "P-glycoprotein (P-gp; MDR1) transporter mRNA", "set-up": "method as in AZD5069 Investigator Brochure (IB)", "settings": "human hepatocytes; ref AZD5069 Investigator Brochure (IB); cited from earlier work"}, "[5]": {"test_system": "patients with chronic obstructive pulmonary disease (COPD)", "settings": "cited from earlier work"}},
  "note": "Where two headings read alike, the source gives them in different places.",
  "data": [
    {"smiles": "C[C@@H](Oc1cc(NS(=O)(=O)N2CCC2)nc(SCc2cccc(F)c2F)n1)[C@@H](O)CO", "note": "[AZD5069]", "values": [
      {"measurement": "effect on blood neutrophil counts and NLRs", "setting": "blood neutrophils; 40 mg BD to 320 mg BD", "result": "decreased blood neutrophil counts and NLRs in a dose-dependent manner"},
      {"measurement": "on-target reduction in blood neutrophil counts", "setting": "blood neutrophils; AZD5069 >40 mg BD", "result": "at least 30%"},
      {"measurement": "density of other immune cells in CRPC biopsies", "setting": "[1]", "result": "did not significantly alter the density of other immune cells"},
      {"measurement": "density of CD11b+HLA-DRloCD15+CD14− myeloid cells in CRPC biopsies", "setting": "[1]; most patients treated with AZD5069 >40 mg BD, approximately 2 weeks after starting treatment", "result": "reduced the density"},
      {"measurement": "inhibition of CYP2A6", "setting": "CYP2A6", "result": "not an inhibitor"},
      {"measurement": "inhibition of CYP2B6", "setting": "CYP2B6 [2]", "result": "not an inhibitor"},
      {"measurement": "induction of CYP2B6 activity", "setting": "CYP2B6 [3]", "result": "concentration dependent induction"},
      {"measurement": "induction of P-glycoprotein (P-gp; MDR1) transporter mRNA", "setting": "[4]", "result": "concentration dependent induction"},
      {"measurement": "adverse events (AEs)", "setting": "[5]; 50mg AZD5069, ref (18)", "result": 33, "unit": "%"},
      {"measurement": "treatment discontinuation for decrease in neutrophils (<1.0 × 10^9/L in two blood samples, 24 hours apart)", "setting": "[5]; 50mg AZD5069, ref (18)", "result": 10, "unit": "%"},
      {"measurement": "adverse events (AEs)", "setting": "[5]; 80mg AZD5069, ref (18)", "result": 21, "unit": "%"},
      {"measurement": "treatment discontinuation for decrease in neutrophils (<1.0 × 10^9/L in two blood samples, 24 hours apart)", "setting": "[5]; 80mg AZD5069, ref (18)", "result": 4, "unit": "%"},
      {"measurement": "AEs leading to discontinuation of treatment", "setting": "[5]; AZD5069 50 mg group, ref (18)", "result": 17, "unit": "%"},
      {"measurement": "patients discontinued from the study due to decreased neutrophil count", "setting": "[5]; AZD5069 50 mg group, ref (18)", "result": 3},
      {"measurement": "AEs leading to discontinuation of treatment", "setting": "[5]; AZD5069 80 mg group, ref (18)", "result": 7, "unit": "%"},
      {"measurement": "average decrease of blood neutrophil counts from baseline", "setting": "[5]; AZD5069 80 mg group, ref (18)", "result": "13-36%"},
      {"measurement": "patients discontinued from the study due to decreased neutrophil count", "setting": "[5]; AZD5069 80 mg group, ref (18)", "result": 1}
    ]}
  ]
}
